Test results published in patent US8192962B2, “Processes for detecting toxic substances” (Daikin Industries, Ltd., priority 2001, dated 2012).

Test system: Unknown protein yeast genes
Test: DNA chip mRNA expression in yeast, unknown protein yeast genes (Table 1)
Format: cell-based, Saccharomyces cerevisiae S288C
Procedure: Yeast (Saccharomyces cerevisiae S288C (α SUC2mal mel gap2 CUP1)) were incubated at 25° C. on YPD medium (yeast extract 1%, polypepton 2%, glucose 2%). One of toxic chemical substances was added to the cells at logarithmic growth phase, and the cells were further incubated for two hours. Cells were cultured without any chemical substance in the same condition, and were used as control. Concentrations of the chemical substances were defined to inhibit the growth of the yeast but not lead to death.
After completion of the incubation, the culture was centrifuged to collect the cells. To the cells, sodium acetate buffer (50 mM sodium acetate, 10 mM EDTA, 1% SDS) was added, and the mixture was shaken at 65° C. for five minutes, followed by returning to room temperature, and obtaining the supernatant, of which the procedures were repeated two times. To the supernatant, ½ amount of a solution of phenol/chloroform was added, and the mixture was centrifuged to give a supernatant, which was added with an equal amount of chloroform, and the mixture was centrifuged to give a supernatant. To the supernatant, an equal amount of isopropanol containing 0.3 M sodium acetate was added, and the mixture was allowed to stand at room temperature for 30 minutes, after which the mixture was centrifuged to give a sediment of the whole RNAs. Seventy % ethanol was added to the sediment, and the mixture was again centrifuged to give a sediment, which was then dried and dissolved in water. mRNA was isolated from the whole RNAs as followings. In view of the fact that a poly A chain is attached to the 3′ terminus of mRNA, a polynucleotide having a poly T structure which was immobilized on the surface of latex beads was used to trap the mRNA, and then the mRNA was washed and eluted with spine column (Oligotex-dT30<Super>mRNA Purification Kit, Takara). Reverse transcription of the mRNA was conducted with a reverse transcriptase (Super Script II Reverse Transcriptase; catalogue No. 18064-014, GibcoBRL) using fluorescence-labeled nucleotides to give cDNAs that were introduced with Cy3-dUTP or Cy5-dUTP during the reverse transcription.
The labeled cDNAs were dissolved in TE buffer (10mM Tris-HCl/1 mM EDTA, pH8.0), and the solution was dropped on the DNA chip containing the whole genes of yeast (DNA Chip Research Inc. Japan) so that the cDNAs were hybridized on the DNA chip at 65° C. for over 12 hours. The fluoresces intensity of the DNA chip was read with a scanner, and the ratio relative to the fluorescence intensity resulting from the absence of chemical substance was estimated as the following, which is shown in Tables 1 to 9: […]

O=[N+]([O-])c1cc[n+]([O-])c2ccccc12 [(5), 4-nitroquinolin-N-oxide]
The level of expressed mRNA in the presence of chemical substance/The level of expressed mRNA in the absence of chemical substance (yeast gene YAL053W, incubated two hours with chemical substance): 0.8 | The level of expressed mRNA in the presence of chemical substance/The level of expressed mRNA in the absence of chemical substance (yeast gene YAR023C): 1.3 | The level of expressed mRNA in the presence of chemical substance/The level of expressed mRNA in the absence of chemical substance (yeast gene YBL048W): 1.3 | The level of expressed mRNA in the presence of chemical substance/The level of expressed mRNA in the absence of chemical substance (yeast gene YBL107C): 1.2 | The level of expressed mRNA in the presence of chemical substance/The level of expressed mRNA in the absence of chemical substance (yeast gene YDL072C, incubated two hours with chemical substance): 1.4 | The level of expressed mRNA in the presence of chemical substance/The level of expressed mRNA in the absence of chemical substance (yeast gene YDL086W): 1.3 | The level of expressed mRNA in the presence of chemical substance/The level of expressed mRNA in the absence of chemical substance (yeast gene YDL129W): 1.3 | The level of expressed mRNA in the presence of chemical substance/The level of expressed mRNA in the absence of chemical substance (yeast gene YDL204W, incubated two hours with chemical substance): 1.0 | The level of expressed mRNA in the presence of chemical substance/The level of expressed mRNA in the absence of chemical substance (yeast gene YDL222C, incubated two hours with chemical substance): 1.0 | The level of expressed mRNA in the presence of chemical substance/The level of expressed mRNA in the absence of chemical substance (yeast gene YDR330W, incubated two hours with chemical substance): 1.2 | The level of expressed mRNA in the presence of chemical substance/The level of expressed mRNA in the absence of chemical substance (yeast gene YDR359C): 1.3 | The level of expressed mRNA in the presence of chemical substance/The level of expressed mRNA in the absence of chemical substance (yeast gene YDR411C, incubated two hours with chemical substance): 1.6 | The level of expressed mRNA in the presence of chemical substance/The level of expressed mRNA in the absence of chemical substance (yeast gene YDR511W, incubated two hours with chemical substance): 1.0 | The level of expressed mRNA in the presence of chemical substance/The level of expressed mRNA in the absence of chemical substance (yeast gene YDR533C): 1.3 | The level of expressed mRNA in the presence of chemical substance/The level of expressed mRNA in the absence of chemical substance (yeast gene YDR545W, incubated two hours with chemical substance): 1.4 | The level of expressed mRNA in the presence of chemical substance/The level of expressed mRNA in the absence of chemical substance (yeast gene YEL001C, incubated two hours with chemical substance): 0.9 | The level of expressed mRNA in the presence of chemical substance/The level of expressed mRNA in the absence of chemical substance (yeast gene YER004W, incubated two hours with chemical substance): 1.5 | The level of expressed mRNA in the presence of chemical substance/The level of expressed mRNA in the absence of chemical substance (yeast gene YER035W, incubated two hours with chemical substance): 1.5 | The level of expressed mRNA in the presence of chemical substance/The level of expressed mRNA in the absence of chemical substance (yeast gene YER079W, incubated two hours with chemical substance): 0.8 | The level of expressed mRNA in the presence of chemical substance/The level of expressed mRNA in the absence of chemical substance (yeast gene YER106W, incubated two hours with chemical substance): 1.6 | The level of expressed mRNA in the presence of chemical substance/The level of expressed mRNA in the absence of chemical substance (yeast gene YER121W): 1.3 | The level of expressed mRNA in the presence of chemical substance/The level of expressed mRNA in the absence of chemical substance (yeast gene YER158C, incubated two hours with chemical substance): 0.8 | The level of expressed mRNA in the presence of chemical substance/The level of expressed mRNA in the absence of chemical substance (yeast gene YER163C, incubated two hours with chemical substance): 0.8 | The level of expressed mRNA in the presence of chemical substance/The level of expressed mRNA in the absence of chemical substance (yeast gene YER175C, incubated two hours with chemical substance): 0.9 | The level of expressed mRNA in the presence of chemical substance/The level of expressed mRNA in the absence of chemical substance (yeast gene YER189W): 1.3 | The level of expressed mRNA in the presence of chemical substance/The level of expressed mRNA in the absence of chemical substance (yeast gene YFL006W, incubated two hours with chemical substance): 1.4 | The level of expressed mRNA in the presence of chemical substance/The level of expressed mRNA in the absence of chemical substance (yeast gene YFL010C, incubated two hours with chemical substance): 1.3 | The level of expressed mRNA in the presence of chemical substance/The level of expressed mRNA in the absence of chemical substance (yeast gene YFL024C): 1.1 | The level of expressed mRNA in the presence of chemical substance/The level of expressed mRNA in the absence of chemical substance (yeast gene YFL032W, incubated two hours with chemical substance): 0.9 | The level of expressed mRNA in the presence of chemical substance/The level of expressed mRNA in the absence of chemical substance (yeast gene YGL037C, incubated two hours with chemical substance): 0.9 | The level of expressed mRNA in the presence of chemical substance/The level of expressed mRNA in the absence of chemical substance (yeast gene YGL047W, incubated two hours with chemical substance): 1.3 | The level of expressed mRNA in the presence of chemical substance/The level of expressed mRNA in the absence of chemical substance (yeast gene YGL053W, incubated two hours with chemical substance): 2.0 | The level of expressed mRNA in the presence of chemical substance/The level of expressed mRNA in the absence of chemical substance (yeast gene YGL121C): 0.9 | The level of expressed mRNA in the presence of chemical substance/The level of expressed mRNA in the absence of chemical substance (yeast gene YGL199C, incubated two hours with chemical substance): 0.7 | The level of expressed mRNA in the presence of chemical substance/The level of expressed mRNA in the absence of chemical substance (yeast gene YGR038W): 1.3 | The level of expressed mRNA in the presence of chemical substance/The level of expressed mRNA in the absence of chemical substance (yeast gene YGR101W, incubated two hours with chemical substance): 1.2 | The level of expressed mRNA in the presence of chemical substance/The level of expressed mRNA in the absence of chemical substance (yeast gene YGR110W): 0.9 | The level of expressed mRNA in the presence of chemical substance/The level of expressed mRNA in the absence of chemical substance (yeast gene YGR130C, incubated two hours with chemical substance): 1.4 | The level of expressed mRNA in the presence of chemical substance/The level of expressed mRNA in the absence of chemical substance (yeast gene YGR142W): 1.3 | The level of expressed mRNA in the presence of chemical substance/The level of expressed mRNA in the absence of chemical substance (yeast gene YGR154C, incubated two hours with chemical substance): 1.2 | The level of expressed mRNA in the presence of chemical substance/The level of expressed mRNA in the absence of chemical substance (yeast gene YGR221C, incubated two hours with chemical substance): 0.9 | The level of expressed mRNA in the presence of chemical substance/The level of expressed mRNA in the absence of chemical substance (yeast gene YHR138C, incubated two hours with chemical substance): 1.5 | The level of expressed mRNA in the presence of chemical substance/The level of expressed mRNA in the absence of chemical substance (yeast gene YHR199C, incubated two hours with chemical substance): 1.2 | The level of expressed mRNA in the presence of chemical substance/The level of expressed mRNA in the absence of chemical substance (yeast gene YIL023C, incubated two hours with chemical substance): 1.3 | The level of expressed mRNA in the presence of chemical substance/The level of expressed mRNA in the absence of chemical substance (yeast gene YIL041W, incubated two hours with chemical substance): 0.5 | The level of expressed mRNA in the presence of chemical substance/The level of expressed mRNA in the absence of chemical substance (yeast gene YIL057C): 1.3 | The level of expressed mRNA in the presence of chemical substance/The level of expressed mRNA in the absence of chemical substance (yeast gene YIL087C, incubated two hours with chemical substance): 1.4 | The level of expressed mRNA in the presence of chemical substance/The level of expressed mRNA in the absence of chemical substance (yeast gene YIR041W): 1.3 | The level of expressed mRNA in the presence of chemical substance/The level of expressed mRNA in the absence of chemical substance (yeast gene YJL057C, incubated two hours with chemical substance): 1.5 | The level of expressed mRNA in the presence of chemical substance/The level of expressed mRNA in the absence of chemical substance (yeast gene YJL066C, incubated two hours with chemical substance): 0.8 | The level of expressed mRNA in the presence of chemical substance/The level of expressed mRNA in the absence of chemical substance (yeast gene YJL082W, incubated two hours with chemical substance): 1.7 | The level of expressed mRNA in the presence of chemical substance/The level of expressed mRNA in the absence of chemical substance (yeast gene YJL100W): 1.3 | The level of expressed mRNA in the presence of chemical substance/The level of expressed mRNA in the absence of chemical substance (yeast gene YJL151C, incubated two hours with chemical substance): 1.3 | The level of expressed mRNA in the presence of chemical substance/The level of expressed mRNA in the absence of chemical substance (yeast gene YJL152W, incubated two hours with chemical substance): 1.6 | The level of expressed mRNA in the presence of chemical substance/The level of expressed mRNA in the absence of chemical substance (yeast gene YJL161W, incubated two hours with chemical substance): 1.1 | The level of expressed mRNA in the presence of chemical substance/The level of expressed mRNA in the absence of chemical substance (yeast gene YJL171C, incubated two hours with chemical substance): 1.0 | The level of expressed mRNA in the presence of chemical substance/The level of expressed mRNA in the absence of chemical substance (yeast gene YJR008W, incubated two hours with chemical substance): 1.4 | The level of expressed mRNA in the presence of chemical substance/The level of expressed mRNA in the absence of chemical substance (yeast gene YJR054W, incubated two hours with chemical substance): 1.0
